Reference: patent publication US20090275633A1, “Novel Tumour Suppressor” (ONCOMETHYLOME SCIENCES SA, priority 2006, published 2009)
“Also recorded” adds a separate entry of the source.

Experiments:
[1] = system: histones H3 and H4 in colorectal cancer cell lines RKO, Co115, HCT-116, SW48 and LoVo; experiment: Histone H3 and H4 acetylation levels (western blot, HPCE) after treatment with HDAC inhibitors; format: cell-based, human; details: 24 hours
Text: To address these issues we assessed the effects of three classical HDACis, the hydroxamic acid trichostatin A and the carboxylic acids butyrate and valproate, on five colorectal cancer cell lines: the HDAC2-mutant cell lines RKO and Co115, and the HDAC2-wild type cell lines HCT-116, SW48 and LoVo. We analyzed the acetylation levels at histones H3 and H4 using western blotting with antibodies raised against tetraacetylated peptides of histones H3 and […], and high-performance capillary electrophoresis (HPCE)^3. […] The HDAC2-deficient cells were resistant to trichostatin A action from a biochemical and also a cellular point of view.
(§1) Human colorectal and endometrial cancer cell lines were obtained from the American Type Culture Collection. HDAC inhibition treatment was developed adding 0.25 μM trichostatin A, 10 mM sodium valproate or 10 mM sodium butyrate to the culture medium for 24 hours. We obtained DNA samples from 228 human primary malignancies corresponding to colon tumors of HPNCC patients (n=47) and sporadic MSI+colon (n=127), MSI-colon (n=40), gastric (n=38) and endometrial carcinomas (n=16), as well as normal colon tissue (n=6), at the time of clinically indicated surgical procedures. Normal lymphocytes from healthy donors (n=50) was also used. DNA was extracted using standard protocols.
We prepared histones in accordance with established protocols1. We obtained histones from cell lines and tumor samples in parallel with their matching controls under identical conditions. For cell lines, we isolated nuclei with RSB buffer (10 mM Tris 10 (pH 7.5), 10 mM NaCl and 3 mM MgCl2) containing I—Nonidet-P40 and protease inhibitors. We extracted nuclei with 0.25 M HCl and precipitated them with eight volumes of acetone. For tumors and their normal tissue counterparts, we homogenized samples with a Polytron homogenizer (Brinkman Instruments) in 0.25 M HCl and incubated them with gentle agitation for 4 h. We precipitated the resulting supernatant with eight volumes of acetone. We then fractionated individual histones by reverse-phase HPLC on a Jupiter C18 column. We made comparisons only between samples extracted with identical methodology.
For western blotting, we collected cells by centrifugation and washed cell pellets twice with phosphate-buffered saline buffer. For HDAC2 expression, nuclear extracts were fractionated on a 7.5% SDS-PAGE gel, transferred the fractions to a polyvinylidene difluoride membrane with […] (Immobilon PSQ, Millipore), blocked the membrane in 5% milk PBS-T (phosphate-buffered saline with 0.1% Tween-20) and immunoprobed it with antibodies to HDAC2 (1:1000) and HDAC1 (1:1000; both from Abcam). The acetylated forms of histones 3 and 4 were analyzed as previously described2. We extracted the histones directly from the cell pellets with 0.250 M HCl. We fractionated 10 μg of the acid-extracted proteins on a 10% SDS-PAGE gel. Transferred membranes were immunoprobed with antibodies to acetylated H4 (1:2,000, Upstate) and acetylated H3 (1:50,000, Upstate). We used horseradish peroxidase-conjugated antibody to rabbit IgG (Amersham) at 1:3,000 dilution in PBS-T as the secondary antibody and antibody to H4 (1:3,000; Upstate) as a loading control. For immunolocalization experiments, we grew cells on coverslips and stained them with antibodies against HDAC2 and HDAC1 (Abcam) as previously described. We obtained images with a Leica DMRD photomicroscope coupled to a Leica DC200 camera, processed them using Adobe Photoshop software and analyzed them using public National Institutes of Health Image software. Immunohistochemical staining of HDAC2 was performed using a polyclonal antibody (Abcam, Cambridge, UK) at a 1:1500 dilution. After antigen retrieval with citrate buffer, immunodetection was performed by the DAKO EnVision Visualization Method (DAKO, Glostrup, Denmark), with diaminobenzidine chromogen as the substrate
We quantified global histone H4 acetylation as previously described3. […]

[2] = system: colon cancer cell lines (RKO, Co115, HCT-116, SW48, LoVo); experiment: Cell viability (MTT assay) of colon cancer cell lines; format: cell-based, human; details: for inhibition of proliferation: all cancer cell lines independently of HDAC2 status
Method: Cells were treated for 48 h with different concentrations of TSA (0-1000 nM). Experiments were performed in triplicate.
(§2) FIG. 5. […] Experiments were performed in triplicate.
as §1
Cell viability was determined as previously described5. Aliquots of 1.5×10^4 cells were plated in 96-well microdilution plates. Following overnight cell adherence, experimental media containing the drugs or control media was added to appropriate wells. After 48 hours, the media was replaced by drug-free fresh media (100 μl/well) containing MTT (50 μg). After a 3 hour incubation at 37° C. in 5% CO2 atmosphere, the MTT was removed and MTT-formazan crystals were dissolved in DMSO (100 μl/well). Absorbance at 570 nm was determined on an automatized microtiter plate reader.

[3] = system: colon cancer cell lines (RKO, Co115, HCT-116, SW48, LoVo); experiment: Apoptosis by flow cytometry (YO-PRO-1/propidium iodide); format: cell-based, human; set-up: apoptosis (propidium iodide): dose or concentration left out as unconfirmed; details: for apoptosis (propidium iodide): HDAC2-deficient RKO cells, 24 h with SAHA
Method: as §2, §1
(§3) The percentage of apoptotic cells was determined by flow cytomery using Vybrant® Apoptosis Assay Kit #4-YO-PRO®-1/propidium iodide (Molecular Probes/Invitrogen). To analyze the cell cycle profiles, we stained with propidium iodide and the percentage of cells in G2/M was determined by flow cytometry.

[4] = system: colon cancer cell lines (RKO, Co115, HCT-116, SW48, LoVo); experiment: Cell cycle analysis (percentage of cells in G2/M, propidium iodide flow cytometry); format: cell-based, human; details: for blockage of the cell cycle at G2/M: all cancer cell lines independently of HDAC2 status; for G2/M cell cycle arrest: TSA
Method: as §1, §3

[5] = system: HCT116, RKO and Co115 tumor xenografts; experiment: Mouse xenograft model with PBS, TSA and BUT treatments; format: in vivo, athymic nude mice
Text: a, PBS, BUT and TSA treated female athymic nude mice 17 days after injection of RKO (left flank) and HCT116 (right flank) cells.
b, Tumors were excised and weighed. Tumor detail in cm and weight in mg for PBS-, BUT- and TSA-HCT116, RKO and C0115 cells.
c, Effect of the HDAC inhibitors TSA and sodium butyrate (But) on the in vivo growth of HCT116, RKO and C0115. Tumor size was monitored over time and size in mm3. Dark square: PBS treatment, Dark circle: TSA treatment, Dark triangle: BUT treatment.
Six-week-old female athymic nude mice nu/nu (Harlam Sprague-Dawley, Indianapolis, Ind.), housed under specific pathogen-free conditions (Institutional Animal Welfare Committee Agreement), were used for HCT116, RKO and Co115 tumor xenografts. For treatments, animals were randomly separated in three seven-specimens-groups, differentiated for PBS (Control), TSA (Trichostatin A) and BUT (Butyric acid) treatments. Both flanks of each animal were injected s.c. with 106 (HCT116) or 2×106 (RKO and CO115) cells in a total volume of 200 μL of PBS. For transfections assays both flanks of each animal were injected subcutaneously with 2×106 RKO (left) or RKO-HDAC2-transfected (right) cells in a total volume of 200 μL of PBS. Tumor development at the site of injection was evaluated daily. Animals were sacrificed at 21 days. The tumors were then excised and weighed.

[6] = system: RKO-HDAC2-transfected cells; experiment: H4 acetylation by HPCE in RKO cells transfected with HDAC2; format: cell-based, human; details: RKO cells transfected with wild-type HDAC2
Text: b, Quantification of H4 acetylation by HPCE.
(§4) We quantified global histone H4 acetylation as previously described3. We prepared individual histone fractions from cell nuclei and purified them by reverse-phase HPLC on a Jupiter C18 column (Phenomenex, Inc.) with an acetonitrile gradient (20-60%) in 0.3% trifluoroacetic acid, using a HPLC gradient system (Beckman-Coulter). We resolved non-, mono, di-, tri- and tetra-acetylated histone H4 derivatives by HPCE. We used an uncoated fused-silica capillary (Beckman-Coulter; 60.2 cm 75 μm, effective length 50 cm) in a capillary electrophoresis system (P/ACE MDQ, Beckman-Coulter) with 100 mM phosphate buffer (pH 2.0) 0.02% (w/v) HPM-cellulose as running buffer and operating voltages of 12 kV.
The HDAC2 expression vector pcDNA3-HDAC2 was constructed by cloning the cDNA corresponding to the gene HDAC2 in pcDNA vector (Invitrogen). […] C1ones expressing HDAC2 were selected in complete medium supplemented with 1 mg/mL G418. Stable clones were maintained in complete medium with 1 mg/mL G418. For colony formation experiments, stable G418-resistant colonies were fixed, stained with 2% methylene blue in 60% methanol, and the average number of colonies present in each well was determined.

[7] = system: HDAC2-knocked down HCT116 cells; format: cell-based, human
Text: as §4

[8] = all colorectal cell lines irrespective of HDAC2 status, 10 mM sodium valproate or 10 mM sodium butyrate
[9] = all cancer cell lines independently of HDAC2 status
[10] = HDAC2-proficient cell lines, TSA
[11] = HDAC2-proficient cell lines, TSA, listed as TSA

CCCC(CCC)C(=O)[O-].[Na+] [valproate, sodium valproate]
hyperacetylation of histones H3 and H4 [1, 8]: induce hyperacetylation in all cells; also recorded: able to induce hyperacetylation
inhibition of proliferation [2]: significantly inhibited proliferation
induction of apoptosis [3, 9]: induced apoptosis
blockage of the cell cycle at G2/M [4]: able to induce blockage of the cell cycle at G2/M

CC(/C=C/C(=O)NO)=C\[C@@H](C)C(=O)c1ccc(N(C)C)cc1 [trichostatin A]
hyperacetylation of histones H3 and H4 ([1]; HDAC2-deficient RKO and Co115 cell lines, 0.25 μM trichostatin A): unable to induce the hyperacetylation
hyperacetylation of histones H3 and H4 ([1]; HDAC2-deficient RKO and Co115 cell lines, 0.25 μM trichostatin A, listed as TSA): does not induce histone hyperacetylation
hyperacetylation of histones H3 and H4 ([1]; HDAC2-wild type cells (HCT-116, SW48, LoVo), 0.25 μM trichostatin A): effective
hyperacetylation of histones H3 and H4 ([1]; HDAC2-wild type cells (HCT-116, SW48, LoVo), 0.25 μM trichostatin A, listed as TSA): hyperacetylation is achieved
biochemical and cellular (antiproliferative and proapoptotic) effects of HDAC inhibitors ([2]; HDAC2-deficient cancer cells, general statement): resistant; also recorded: impairs
cell growth inhibition ([2]; HDAC2-deficient cells (RKO, Co115), TSA 0-1000 nM, 48 h): remained highly resistant
cell growth inhibition ([2]; HDAC2-deficient cells (RKO, Co115), TSA 0-1000 nM, 48 h, listed as TSA): marked resistance; also recorded: enhanced resistance
cell growth inhibition [2, 10]: only able to accomplish these effects in the HDAC2-proficient cell lines
cell growth inhibition [2, 11]: induces
induction of apoptosis ([3]; HDAC2-mutant cells (RKO), TSA): remained highly resistant
induction of apoptosis ([3]; HDAC2-mutant cells (RKO), TSA, listed as TSA): marked resistance
induction of apoptosis [3, 10]: only able to accomplish these effects in the HDAC2-proficient cell lines
induction of apoptosis [3, 11]: induces
G2/M cell cycle arrest ([4]; HDAC2-mutant cells (RKO)): remained highly resistant
G2/M cell cycle arrest ([4]; HDAC2-mutant cells (RKO), listed as TSA): marked resistance
G2/M cell cycle arrest ([4]; HDAC2-proficient cell lines): only able to accomplish these effects in the HDAC2-proficient cell lines
G2/M cell cycle arrest ([4]; HDAC2-proficient cell lines, listed as TSA): induces
tumor shrinkage ([5]; HDAC2-mutant RKO and Co115 xenografts in nude mice): remained highly resistant
tumor shrinkage ([5]; HDAC2-mutant RKO and Co115 xenografts in nude mice, listed as TSA): remained resistant
tumor shrinkage ([5]; HDAC2-proficient HCT-116 xenografts in nude mice): only able to accomplish these effects in the HDAC2-proficient cell line (HCT-116)
histone H4 acetylation mediated by TSA (HPCE) [6]: more sensitive
histone H4 acetylation mediated by TSA (HPCE) ([6]; listed as TSA): show resistance to histone acetylation
histone H4 acetylation mediated by TSA (HPCE) [7]: resistant to histone acetylation; also recorded: resistance

O=C(CCCCCCC(=O)Nc1ccccc1)NO [SAHA, suberoylanilide hydroxamic acid]
apoptosis (propidium iodide) [3]: enhanced resistance
apoptosis (propidium iodide) ([3]; listed as suberoylanilide hydroxamic acid (SAHA)): unable to efficiently inhibit cell growth and induce apoptosis

CCCC(=O)[O-].[Na+] [butyrate, sodium butyrate]
hyperacetylation of histones H3 and H4 [1, 8]: induce hyperacetylation in all cells; also recorded: able to induce hyperacetylation
inhibition of proliferation [2]: significantly inhibited proliferation
induction of apoptosis [3, 9]: induced apoptosis
blockage of the cell cycle at G2/M [4]: able to induce blockage of the cell cycle at G2/M
tumor shrinkage ([5]; all cancer cell lines xenografted in nude mice (HCT-116, RKO, Co115), independently of HDAC2 status): induced tumor shrinkage
